Patent US11084809B2, “N-((HET)arylmethyl)-heteroaryl-carboxamides compounds as kallikrein inhibitors” (KALVISTA PHARMACEUTICALS LIMITED, priority 2014, dated 2021)

Columns and labels:
Type in all cases: biochemical
[1] = target: Human XIa (Homo sapiens (Human), UniProt P03951); assay: Determination of the % inhibition for XIa; conditions: 40 μM test compound, 25° C.
Protocol: Determination of the % Inhibition for XIa
Human XIa (Enzyme Research Laboratories) was incubated at 25° C. with the fluorogenic substrate Z-Gly-Pro-Arg-AFC and 40 μM of the test compound. Residual enzyme activity (initial rate of reaction) was determined by measuring the change in optical absorbance at 410 nm.

[2] = target: Human plasma kallikrein (Homo sapiens (Human), UniProt P03952); assay: Determination of the IC50 for plasma kallikrein; conditions: read-out: IC50 (human PKal)
Protocol: Determination of the IC50 for plasma kallikrein
(§1) Human plasma kallikrein (Protogen) was incubated at 25° C. with the fluorogenic substrate H-DPro-Phe-Arg-AFC and various concentrations of the test compound. Residual enzyme activity (initial rate of reaction) was determined by measuring the change in […] at 410 nm and the IC50 value for the test compound was determined.

[3] = target: Human KLK1 (Homo sapiens (Human), UniProt P06870); assay: Determination of the IC50 for KLK1; conditions: human KLK1, 25° C., substrate H-DVal-Leu-Arg-AFC
Protocol: Determination of the IC50 for KLK1
as §1, with “KLK1 (Callbiochem)” for “plasma kallikrein (Protogen)”, “H-DVal-Leu-Arg-AFC” for “H-DPro-Phe-Arg-AFC”

Chain of Human KLK1 (P06870 25-262): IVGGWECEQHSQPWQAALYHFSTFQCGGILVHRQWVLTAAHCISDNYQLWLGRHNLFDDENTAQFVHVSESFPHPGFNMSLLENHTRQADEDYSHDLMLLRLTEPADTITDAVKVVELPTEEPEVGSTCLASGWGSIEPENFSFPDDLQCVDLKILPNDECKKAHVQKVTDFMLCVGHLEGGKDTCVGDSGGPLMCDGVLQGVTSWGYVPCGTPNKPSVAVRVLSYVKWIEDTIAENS
Chain of Human XIa (P03951 388-625): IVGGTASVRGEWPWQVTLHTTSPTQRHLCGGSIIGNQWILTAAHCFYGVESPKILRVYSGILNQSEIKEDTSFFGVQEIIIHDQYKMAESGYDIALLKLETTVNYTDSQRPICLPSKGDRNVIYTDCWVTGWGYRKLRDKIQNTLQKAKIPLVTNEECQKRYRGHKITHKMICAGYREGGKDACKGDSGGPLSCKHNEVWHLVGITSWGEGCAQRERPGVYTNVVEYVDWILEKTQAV
Chain of Human XIa (P03951 19-387 partner): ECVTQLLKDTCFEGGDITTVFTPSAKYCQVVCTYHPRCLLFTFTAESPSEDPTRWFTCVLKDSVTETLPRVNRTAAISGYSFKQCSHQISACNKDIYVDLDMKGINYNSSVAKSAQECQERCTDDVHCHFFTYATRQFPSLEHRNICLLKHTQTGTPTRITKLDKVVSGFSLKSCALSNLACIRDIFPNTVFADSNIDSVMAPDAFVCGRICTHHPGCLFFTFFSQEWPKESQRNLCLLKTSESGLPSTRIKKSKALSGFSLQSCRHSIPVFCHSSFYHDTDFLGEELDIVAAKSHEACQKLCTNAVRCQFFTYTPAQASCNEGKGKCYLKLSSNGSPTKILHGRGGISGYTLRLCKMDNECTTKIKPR
Chain of Human plasma kallikrein (P03952 391-638): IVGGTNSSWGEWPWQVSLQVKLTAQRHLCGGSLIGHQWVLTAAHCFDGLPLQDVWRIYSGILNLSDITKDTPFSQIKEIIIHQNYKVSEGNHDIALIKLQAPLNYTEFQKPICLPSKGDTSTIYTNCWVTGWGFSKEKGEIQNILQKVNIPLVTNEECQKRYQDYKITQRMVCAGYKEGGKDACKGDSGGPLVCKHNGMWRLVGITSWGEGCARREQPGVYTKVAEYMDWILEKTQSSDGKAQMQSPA
Chain of Human plasma kallikrein (P03952 20-390 partner): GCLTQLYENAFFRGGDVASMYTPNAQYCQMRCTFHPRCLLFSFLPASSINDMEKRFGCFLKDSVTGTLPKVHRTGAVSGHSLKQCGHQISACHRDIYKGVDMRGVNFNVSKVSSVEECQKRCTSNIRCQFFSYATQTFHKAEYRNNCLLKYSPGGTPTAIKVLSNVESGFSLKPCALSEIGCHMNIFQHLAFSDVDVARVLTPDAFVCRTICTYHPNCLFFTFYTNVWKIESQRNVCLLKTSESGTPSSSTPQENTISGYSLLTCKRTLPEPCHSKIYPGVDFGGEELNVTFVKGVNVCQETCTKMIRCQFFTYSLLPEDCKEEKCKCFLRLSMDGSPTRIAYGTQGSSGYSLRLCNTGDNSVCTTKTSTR

% Inhibition @ 40 μM (human FXIa) [1]	IC50 [2]	IC50 [3]	Compound
0%	–	–	NC(=O)c1cccc(CNC(=O)c2cn(Cc3ccc(Cn4ccccc4=O)cc3)nc2C2CC2)c1 [Example 49, N-[(3-carbamoylphenyl)methyl]-3-cyclopropyl-1-({4-[(2-oxopyridin-1-yl)methyl]phenyl}methyl)pyrazole-4-carboxamide]
–	717 nM	> 10000 nM	N-[(2,4-dimethylphenyl)methyl]-1-({4-[(4-methylpyrazol-1-yl)methyl]phenyl}methyl)-3-(trifluoromethyl)pyrazole-4-carboxamide [Example 24]

Further lines, the compound ahead of its results:

Compound	% Inhibition @ 40 μM (human FXIa) [1]	IC50 [2]	IC50 [3]
Nc1nn(Cc2ccc(Cn3ccccc3=O)cc2)cc1C(=O)NCc1ccc(OC(F)(F)F)cc1 [Example 58, 3-amino-1-({4-[(2-oxopyridin-1-yl)methyl]phenyl}methyl)-N-{[4-(trifluoromethoxy)phenyl]methyl}pyrazole-4-carboxamide]	0%	–	–
CCOc1cccc(CNC(=O)c2cn(Cc3ccc(Cn4cc(C)cn4)cc3)nc2C(F)(F)F)c1 [Example 6, N-[(3-ethoxyphenyl)methyl]-1-({4-[(4-methylpyrazol-1-yl)methyl]phenyl}methyl)-3-(trifluoromethyl)pyrazole-4-carboxamide]	0%	–	> 10000 nM
COc1cccc(CNC(=O)c2cn(Cc3ccc(Cn4ccccc4=O)cc3)nc2C2CC2)c1F [Example 52, 3-cyclopropyl-N-[(2-fluoro-3-methoxyphenyl)methyl]-1-({4-[(2-oxopyridin-1-yl)methyl]phenyl}methyl)pyrazole-4-carboxamide]	1%	–	–
N-[(2,6-dimethylphenyl)methyl]-1-({4-[(4-methylpyrazol-1-yl)methyl]phenyl}methyl)-3-(trifluoromethyl)pyrazole-4-carboxamide [Example 25]	–	1840 nM	> 10000 nM
